# Data published in PubChem BioAssay AID248 (DTP/NCI, 2004).
# “And” between values parts separate entries of the source, which are not always exact repeats. Equal entries are not always repeated. Toxic doses and inconclusive results are not listed.
# System: L1210 leukemia ip in BDF1 mice, survival T/C
# Test: NCI In Vivo Anticancer Drug Screen. Data for tumor model L1210 Leukemia (intraperitoneal) in B6D2F1 (BDF1) mice
# Conditions: endpoint: mean survival time, higher = longer survival
# In short: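 Antitumor effect is assessed in tumor-bearing animals. Survival in the compound arm is compared with a vehicle-dosed control arm and expressed as their quotient.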
# [1] = dose: 100.0 mg/kg/injection, schedule: Q01DX009 (ip), vehicle: saline
# [2] = dose: 100.0 mg/kg/injection, schedule: Q04DX003 (ip), vehicle: Klucel (hydroxypropylcellulose) (HPC)
# [3] = dose: 200.0 mg/kg/injection, schedule: Q04DX003 (ip), vehicle: Klucel (hydroxypropylcellulose) (HPC)
# [4] = dose: 400.0 mg/kg/injection, schedule: Q04DX003 (ip), vehicle: Klucel (hydroxypropylcellulose) (HPC)
# [5] = dose: 100.0 mg/kg/injection, schedule: Q04DX002 (ip), vehicle: Klucel (hydroxypropylcellulose) (HPC)
# [6] = dose: 200.0 mg/kg/injection, schedule: Q04DX002 (ip), vehicle: Klucel (hydroxypropylcellulose) (HPC)
# [7] = dose: 400.0 mg/kg/injection, schedule: Q04DX002 (ip), vehicle: Klucel (hydroxypropylcellulose) (HPC)
# [8] = dose: 100.0 mg/kg/injection, schedule: Q01DX009 (ip), vehicle: Klucel (hydroxypropylcellulose) (HPC)
# [9] = dose: 200.0 mg/kg/injection, schedule: Q01DX009 (ip), vehicle: Klucel (hydroxypropylcellulose) (HPC)
# [10] = dose: 200.0 mg/kg/injection, schedule: Q04DX003 (ip), vehicle: saline
# [11] = dose: 100.0 mg/kg/injection, schedule: Q04DX003 (ip), vehicle: saline with Tween-80
# [12] = dose: 200.0 mg/kg/injection, schedule: Q04DX003 (ip), vehicle: saline with Tween-80
# [13] = dose: 400.0 mg/kg/injection, schedule: Q04DX003 (ip), vehicle: saline with Tween-80
# [14] = dose: 100.0 mg/kg/injection, schedule: Q04DX003 (ip), vehicle: saline
# [15] = dose: 400.0 mg/kg/injection, schedule: Q04DX003 (ip), vehicle: saline
# [16] = dose: 100.0 mg/kg/injection, schedule: Q01DX009 (ip), vehicle: saline with Tween-80
# [17] = dose: 200.0 mg/kg/injection, schedule: Q01DX009 (ip), vehicle: saline with Tween-80
# [18] = dose: 400.0 mg/kg/injection, schedule: Q01DX009 (ip), vehicle: saline with Tween-80
structure (smiles),measurement,setting,value
c1ccc(COc2ccc(OCc3ccccc3)cc2)cc1,T/C,"dose: 50.0 mg/kg/injection, schedule: Q01DX009 (ip), vehicle: saline",93 % of control
same,T/C,[1],98 % of control
same,T/C,[2],87 % of control
same,T/C,"dose: 200.0 mg/kg/injection, schedule: Q01DX009 (ip), vehicle: saline",93 % of control
same,T/C,[3],105 % of control
same,T/C,[4],94 % of control
CCCCCCCCOC(=O)c1ccc2nc3cc4ccccc4cc3nc2c1,T/C,[5],94 % of control
same,T/C,[6],92 % of control
same,T/C,[7],92 % of control
CC(=O)NC(CSCc1ccccc1)(SCc1ccccc1)C(=O)O (stereo unspecified),T/C,"dose: 100.0 mg/kg/injection, schedule: Q01DX001 (ip), vehicle: Klucel (hydroxypropylcellulose) (HPC)",92 % of control
same,T/C,"dose: 200.0 mg/kg/injection, schedule: Q01DX001 (ip), vehicle: Klucel (hydroxypropylcellulose) (HPC)",90 % of control
same,T/C,"dose: 400.0 mg/kg/injection, schedule: Q01DX001 (ip), vehicle: Klucel (hydroxypropylcellulose) (HPC)",92 % of control
CN(C)c1ccc(/C=N/NC(=S)Nc2ccccc2)cc1,T/C,[8],109 % of control
same,T/C,[9],98 % of control
same,T/C,"dose: 400.0 mg/kg/injection, schedule: Q01DX009 (ip), vehicle: Klucel (hydroxypropylcellulose) (HPC)",94 % of control
CCC1CN2C(=N1)c1cc(Cl)ccc1-c1ccc(Cl)cc12 (stereo unspecified),T/C,[8],95 % of control
same,T/C,[2],101 % of control
same,T/C,[9],98 % of control
same,T/C,[3],103 % of control
same,T/C,[4],116 % of control
Cn1c(=O)c2c(nc(N/N=C/c3cccc4ccccc34)n2C)n(C)c1=O,T/C,"dose: 44.0 mg/kg/injection, schedule: Q01DX Z (ip), vehicle: saline",90 % of control
same,T/C,"dose: 66.0 mg/kg/injection, schedule: Q01DX Z (ip), vehicle: saline",94 % of control
same,T/C,"dose: 100.0 mg/kg/injection, schedule: Q01DX Z (ip), vehicle: saline",92 % of control
CC1(C)N=C(N)N=C(N)N1c1ccc(CCCCc2ccc(S(=O)(=O)F)cc2Cl)c(Cl)c1,T/C,"dose: 3.12 mg/kg/injection, schedule: Q01DX009 (ip), vehicle: Klucel (hydroxypropylcellulose) (HPC)",102 % of control
same,T/C,"dose: 3.12 mg/kg/injection, schedule: Q04DX003 (ip), vehicle: Klucel (hydroxypropylcellulose) (HPC)",97 % of control
same,T/C,"dose: 6.25 mg/kg/injection, schedule: Q01DX009 (ip), vehicle: Klucel (hydroxypropylcellulose) (HPC)",100 % of control
same,T/C,"dose: 6.25 mg/kg/injection, schedule: Q01DX009 (ip), vehicle: saline",116 % of control
same,T/C,"dose: 6.25 mg/kg/injection, schedule: Q04DX003 (ip), vehicle: Klucel (hydroxypropylcellulose) (HPC)",105 % of control
same,T/C,"dose: 7.26 mg/kg/injection, schedule: Q01DX009 (ip), vehicle: saline",111 % of control
same,T/C,"dose: 7.26 mg/kg/injection, schedule: Q04DX003 (ip), vehicle: saline",115 % of control
same,T/C,"dose: 10.89 mg/kg/injection, schedule: Q01DX009 (ip), vehicle: saline",117 % of control
same,T/C,"dose: 12.5 mg/kg/injection, schedule: Q01DX009 (ip), vehicle: Klucel (hydroxypropylcellulose) (HPC)",105 % of control
same,T/C,"dose: 12.5 mg/kg/injection, schedule: Q04DX003 (ip), vehicle: Klucel (hydroxypropylcellulose) (HPC)",105 % of control
same,T/C,"dose: 24.0 mg/kg/injection, schedule: Q01DX009 (ip), vehicle: saline with Tween-80",122 % of control
same,T/C,"dose: 25.0 mg/kg/injection, schedule: Q01DX009 (ip), vehicle: Klucel (hydroxypropylcellulose) (HPC)",107 % of control and 122 % of control
same,T/C,"dose: 25.0 mg/kg/injection, schedule: Q04DX003 (ip), vehicle: Klucel (hydroxypropylcellulose) (HPC)",115 % of control
same,T/C,"dose: 50.0 mg/kg/injection, schedule: Q04DX003 (ip), vehicle: Klucel (hydroxypropylcellulose) (HPC)",112 % of control
same,T/C,"dose: 75.0 mg/kg/injection, schedule: Q01DX009 (ip), vehicle: saline with Tween-80",98 % of control
same,T/C,"dose: 75.0 mg/kg/injection, schedule: Q01DX009 (ip), vehicle: saline",116 % of control
same,T/C,[1],88 % of control
same,T/C,[2],118 % of control
same,T/C,"dose: 150.0 mg/kg/injection, schedule: Q01DX009 (ip), vehicle: saline",96 % of control
same,T/C,"dose: 150.0 mg/kg/injection, schedule: Q04DX003 (ip), vehicle: saline with Tween-80",117 % of control
same,T/C,[9],109 % of control
same,T/C,[10],120 % of control
same,T/C,"dose: 300.0 mg/kg/injection, schedule: Q01DX009 (ip), vehicle: saline",98 % of control
same,T/C,"dose: 300.0 mg/kg/injection, schedule: Q04DX003 (ip), vehicle: Klucel (hydroxypropylcellulose) (HPC)",152 % of control
same,T/C,"dose: 300.0 mg/kg/injection, schedule: Q04DX003 (ip), vehicle: saline",152 % of control
same,T/C,[4],113 % of control
same,T/C,"dose: 450.0 mg/kg/injection, schedule: Q04DX003 (ip), vehicle: saline",111 % of control
COC1OC2COC(c3ccccc3)OC2C(O)C1OC(N)=S (stereo unspecified),T/C,"dose: 25.0 mg/kg/injection, schedule: Q04DX002 (ip), vehicle: Klucel (hydroxypropylcellulose) (HPC)",98 % of control
same,T/C,"dose: 50.0 mg/kg/injection, schedule: Q04DX002 (ip), vehicle: Klucel (hydroxypropylcellulose) (HPC)",98 % of control
same,T/C,[5],88 % of control
same,T/C,[6],100 % of control
same,T/C,[7],96 % of control
c1ccc(N2CCN(c3ccccc3)C2c2ccc3c(c2)CCC3)cc1,T/C,[11],92 % of control
same,T/C,[12],90 % of control
same,T/C,[13],104 % of control
C(=C/c1nc2ccccc2o1)/c1ccc2c(c1)OCO2,T/C,[5],97 % of control
same,T/C,[6],97 % of control
same,T/C,[7],97 % of control
Cc1cc(OC(=O)Nc2cccc(Cl)c2)ccc1[N+](=O)[O-],T/C,[8],101 % of control
same,T/C,[2],90 % of control
same,T/C,[9],101 % of control
same,T/C,[3],95 % of control
same,T/C,[4],90 % of control
CC1CCC(C2=CSC3CCCCC3N2)CC1 (stereo unspecified),T/C,"dose: 100.0 mg/kg/injection, schedule: Q04DX002 (ip), vehicle: other",105 % of control
same,T/C,"dose: 200.0 mg/kg/injection, schedule: Q04DX002 (ip), vehicle: other",94 % of control
same,T/C,"dose: 400.0 mg/kg/injection, schedule: Q04DX002 (ip), vehicle: other",94 % of control
C(=N\Nc1ccccc1)/C(=N\Nc1ccccc1)c1ccccc1,T/C,[11],103 % of control
same,T/C,[12],97 % of control
same,T/C,[13],98 % of control
COC(=O)C(CCSC)NC(=O)C1CSC(C)(C)N1C=O (stereo unspecified),T/C,[14],97 % of control
same,T/C,[10],97 % of control
same,T/C,[15],101 % of control
COc1ccc(OC)c(NC(=O)NNC(=O)CNC(=O)Nc2cccc([N+](=O)[O-])c2)c1,T/C,[16],89 % of control
same,T/C,[17],91 % of control
same,T/C,[18],91 % of control
N#CC(C#N)C1c2ccccc2Nc2ccccc21,T/C,"dose: 12.5 mg/kg/injection, schedule: Q01DX009 (ip), vehicle: saline with Tween-80",89 % of control
same,T/C,"dose: 25.0 mg/kg/injection, schedule: Q01DX009 (ip), vehicle: saline with Tween-80",89 % of control
same,T/C,"dose: 50.0 mg/kg/injection, schedule: Q01DX009 (ip), vehicle: saline with Tween-80",98 % of control and 89 % of control
CN(C(=O)CCCO)c1cc([N+](=O)[O-])ccc1OCc1ccccc1,T/C,[16],93 % of control
same,T/C,[11],92 % of control
same,T/C,[17],93 % of control
same,T/C,[12],101 % of control
same,T/C,[18],90 % of control
same,T/C,[13],92 % of control
CCOC(=O)Nc1ccc2c(c1)/C(=N/O)c1ccccc1-2,T/C,"dose: 100.0 mg/kg/injection, schedule: Q01DX001 (ip), vehicle: carboxymethylcellulose (CMC)",94 % of control
same,T/C,"dose: 200.0 mg/kg/injection, schedule: Q01DX001 (ip), vehicle: carboxymethylcellulose (CMC)",91 % of control
same,T/C,"dose: 400.0 mg/kg/injection, schedule: Q01DX001 (ip), vehicle: carboxymethylcellulose (CMC)",91 % of control
O=[N+]([O-])c1ccc(Br)o1,T/C,"dose: 6.25 mg/kg/injection, schedule: Q04DX003 (ip), vehicle: saline with Tween-80",110 % of control
same,T/C,"dose: 12.5 mg/kg/injection, schedule: Q04DX003 (ip), vehicle: saline with Tween-80",101 % of control
same,T/C,"dose: 25.0 mg/kg/injection, schedule: Q04DX003 (ip), vehicle: saline with Tween-80",105 % of control
O=C(c1ccccc1)C1(c2ccccc2)SSC1(C(=O)c1ccccc1)c1ccccc1 (stereo unspecified),T/C,[14],95 % of control
same,T/C,[10],92 % of control
same,T/C,[15],97 % of control
